Reference: ChEMBL document CHEMBL6109064, “Functional and structural polypharmacology of indazole-based privileged ligands to tackle the undruggability of membrane transporters” (Eur J Med Chem, 2025)
Calls of active or inactive are those of the source. The calls are words filed in the database; no cut-off is given here.

Legend:
Type in all cases: cell-based
[1] = target: T1, Solute carrier organic anion transporter family member 1A2 (Homo sapiens, UniProt P46721); experiment: Inhibition of OATP1A2 (unknown origin) transfected in human A-431 cells assessed as inhibition of SR101 uptake preincubated for 5 mins followed by SR101 addition and measured after 10 mins by fluorescence based analysis
T1 sequence (P46721 whole entry): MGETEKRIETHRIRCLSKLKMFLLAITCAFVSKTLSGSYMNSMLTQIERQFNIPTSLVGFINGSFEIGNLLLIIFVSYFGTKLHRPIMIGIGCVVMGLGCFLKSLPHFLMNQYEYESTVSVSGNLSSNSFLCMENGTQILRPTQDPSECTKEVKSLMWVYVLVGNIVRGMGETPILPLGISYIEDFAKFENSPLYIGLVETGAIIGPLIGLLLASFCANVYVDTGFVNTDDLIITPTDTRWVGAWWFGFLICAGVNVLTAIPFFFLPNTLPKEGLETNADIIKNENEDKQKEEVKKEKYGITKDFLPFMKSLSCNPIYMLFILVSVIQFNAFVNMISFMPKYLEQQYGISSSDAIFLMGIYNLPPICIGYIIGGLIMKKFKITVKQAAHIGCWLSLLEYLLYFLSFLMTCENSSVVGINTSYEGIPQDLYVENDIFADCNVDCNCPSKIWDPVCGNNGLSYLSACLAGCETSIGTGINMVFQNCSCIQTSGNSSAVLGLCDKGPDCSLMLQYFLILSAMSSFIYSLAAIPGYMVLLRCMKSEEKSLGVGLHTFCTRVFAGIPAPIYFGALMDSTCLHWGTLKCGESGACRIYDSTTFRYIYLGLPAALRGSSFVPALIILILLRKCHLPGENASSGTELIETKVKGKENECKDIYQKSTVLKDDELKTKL

[2] = target: T2, Solute carrier family 22 member 3 (Homo sapiens, UniProt O75751); experiment: Inhibition of OCT3 (unknown origin) expressed in HEK293 cells assessed as inhibition of ASP+ uptake incubated for 5 mins by fluorescence based analysis
T2 sequence (O75751 whole entry): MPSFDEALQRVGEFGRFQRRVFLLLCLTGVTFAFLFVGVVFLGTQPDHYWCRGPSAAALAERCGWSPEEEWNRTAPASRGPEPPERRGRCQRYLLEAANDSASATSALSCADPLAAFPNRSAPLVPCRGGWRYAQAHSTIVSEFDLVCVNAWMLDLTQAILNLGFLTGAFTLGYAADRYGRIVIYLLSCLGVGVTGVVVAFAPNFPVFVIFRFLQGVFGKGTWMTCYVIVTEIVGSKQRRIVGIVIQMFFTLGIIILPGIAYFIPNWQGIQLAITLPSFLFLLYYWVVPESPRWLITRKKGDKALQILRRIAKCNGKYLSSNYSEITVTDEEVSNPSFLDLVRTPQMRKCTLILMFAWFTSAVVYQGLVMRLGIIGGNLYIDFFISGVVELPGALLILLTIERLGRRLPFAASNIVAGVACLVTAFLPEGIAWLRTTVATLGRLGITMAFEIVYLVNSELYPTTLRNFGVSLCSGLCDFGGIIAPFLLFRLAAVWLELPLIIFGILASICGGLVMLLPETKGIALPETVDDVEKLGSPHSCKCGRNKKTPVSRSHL

[3] = target: Sodium-dependent dopamine transporter (Homo sapiens) (UniProt Q01959); experiment: Inhibition of DAT (unknown origin) expressed in HEK293 cells assessed as inhibition of MPP+ transport incubated for 5 mins by tandem mass spectrometry
[4] = target: T3, Broad substrate specificity ATP-binding cassette transporter ABCG2 (Homo sapiens, UniProt Q9UNQ0); experiment: Inhibition of ABCG2 (unknown origin) expressed in dog MDCK-II-BCRP cells assessed as increase in Hoechst 33342 fluorescence intensity using Hoechst 33342 as tracer preincubated for 30 mins followed by Hoechst 33342 addition and measured after 120 mins by fluorescence based analysis
T3 sequence (Q9UNQ0 whole entry): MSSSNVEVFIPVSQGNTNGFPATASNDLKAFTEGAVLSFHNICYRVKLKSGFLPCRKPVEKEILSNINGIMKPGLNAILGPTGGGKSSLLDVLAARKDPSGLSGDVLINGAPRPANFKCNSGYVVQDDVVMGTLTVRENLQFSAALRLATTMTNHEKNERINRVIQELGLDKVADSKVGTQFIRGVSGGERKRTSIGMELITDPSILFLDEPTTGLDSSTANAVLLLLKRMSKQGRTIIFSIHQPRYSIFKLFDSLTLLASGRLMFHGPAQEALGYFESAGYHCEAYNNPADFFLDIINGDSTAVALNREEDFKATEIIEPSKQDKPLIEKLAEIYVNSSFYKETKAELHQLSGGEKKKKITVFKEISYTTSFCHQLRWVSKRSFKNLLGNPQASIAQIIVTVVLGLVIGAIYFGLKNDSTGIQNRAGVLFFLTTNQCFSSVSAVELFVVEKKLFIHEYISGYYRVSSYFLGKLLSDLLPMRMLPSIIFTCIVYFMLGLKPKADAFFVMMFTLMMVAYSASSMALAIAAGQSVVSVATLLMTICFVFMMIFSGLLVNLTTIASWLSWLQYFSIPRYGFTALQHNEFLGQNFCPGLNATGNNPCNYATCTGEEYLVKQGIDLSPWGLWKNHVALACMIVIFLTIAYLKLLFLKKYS

[5] = target: T4, Solute carrier family 22 member 1 (Homo sapiens, UniProt O15245); experiment: Inhibition of OCT1 (unknown origin) expressed in HEK293 cells assessed as inhibition of ASP+ uptake incubated for 5 mins by fluorescence based analysis; conditions: hek293, 5 min
T4 sequence (O15245 whole entry): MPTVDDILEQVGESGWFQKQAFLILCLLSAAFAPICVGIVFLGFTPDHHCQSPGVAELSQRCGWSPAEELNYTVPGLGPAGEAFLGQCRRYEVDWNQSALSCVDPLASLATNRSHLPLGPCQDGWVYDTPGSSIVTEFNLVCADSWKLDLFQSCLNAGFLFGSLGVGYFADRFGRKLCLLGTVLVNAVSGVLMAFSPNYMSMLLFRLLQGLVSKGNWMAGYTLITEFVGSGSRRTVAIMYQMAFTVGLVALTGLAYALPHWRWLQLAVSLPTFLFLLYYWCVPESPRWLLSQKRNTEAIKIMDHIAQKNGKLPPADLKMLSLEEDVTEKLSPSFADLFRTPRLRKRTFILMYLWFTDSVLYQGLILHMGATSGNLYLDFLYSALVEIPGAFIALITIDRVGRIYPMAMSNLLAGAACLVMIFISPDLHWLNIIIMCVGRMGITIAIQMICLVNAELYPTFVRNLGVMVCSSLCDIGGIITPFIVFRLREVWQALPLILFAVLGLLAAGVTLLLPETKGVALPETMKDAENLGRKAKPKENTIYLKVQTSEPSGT

[6] = target: T5, Multidrug resistance-associated protein 1 (Homo sapiens, UniProt P33527); experiment: Inhibition of ABCC1 in human NCI-H69AR cells assessed as increase in daunorubicin fluorescence intensity using daunorubicin as tracer preincubated for 30 mins followed by daunorubicin addition and measured for 180 mins by flow cytometry
[7] = target: T5, Multidrug resistance-associated protein 1; experiment: Inhibition of ABCC1 in human NCI-H69AR cells assessed as increase in rhodamine123 fluorescence intensity using rhodamine123 as tracer preincubated for 30 mins followed by rhodamine 123 addition and measured for 180 mins by flow cytometry

T5 sequence (P33527 whole entry): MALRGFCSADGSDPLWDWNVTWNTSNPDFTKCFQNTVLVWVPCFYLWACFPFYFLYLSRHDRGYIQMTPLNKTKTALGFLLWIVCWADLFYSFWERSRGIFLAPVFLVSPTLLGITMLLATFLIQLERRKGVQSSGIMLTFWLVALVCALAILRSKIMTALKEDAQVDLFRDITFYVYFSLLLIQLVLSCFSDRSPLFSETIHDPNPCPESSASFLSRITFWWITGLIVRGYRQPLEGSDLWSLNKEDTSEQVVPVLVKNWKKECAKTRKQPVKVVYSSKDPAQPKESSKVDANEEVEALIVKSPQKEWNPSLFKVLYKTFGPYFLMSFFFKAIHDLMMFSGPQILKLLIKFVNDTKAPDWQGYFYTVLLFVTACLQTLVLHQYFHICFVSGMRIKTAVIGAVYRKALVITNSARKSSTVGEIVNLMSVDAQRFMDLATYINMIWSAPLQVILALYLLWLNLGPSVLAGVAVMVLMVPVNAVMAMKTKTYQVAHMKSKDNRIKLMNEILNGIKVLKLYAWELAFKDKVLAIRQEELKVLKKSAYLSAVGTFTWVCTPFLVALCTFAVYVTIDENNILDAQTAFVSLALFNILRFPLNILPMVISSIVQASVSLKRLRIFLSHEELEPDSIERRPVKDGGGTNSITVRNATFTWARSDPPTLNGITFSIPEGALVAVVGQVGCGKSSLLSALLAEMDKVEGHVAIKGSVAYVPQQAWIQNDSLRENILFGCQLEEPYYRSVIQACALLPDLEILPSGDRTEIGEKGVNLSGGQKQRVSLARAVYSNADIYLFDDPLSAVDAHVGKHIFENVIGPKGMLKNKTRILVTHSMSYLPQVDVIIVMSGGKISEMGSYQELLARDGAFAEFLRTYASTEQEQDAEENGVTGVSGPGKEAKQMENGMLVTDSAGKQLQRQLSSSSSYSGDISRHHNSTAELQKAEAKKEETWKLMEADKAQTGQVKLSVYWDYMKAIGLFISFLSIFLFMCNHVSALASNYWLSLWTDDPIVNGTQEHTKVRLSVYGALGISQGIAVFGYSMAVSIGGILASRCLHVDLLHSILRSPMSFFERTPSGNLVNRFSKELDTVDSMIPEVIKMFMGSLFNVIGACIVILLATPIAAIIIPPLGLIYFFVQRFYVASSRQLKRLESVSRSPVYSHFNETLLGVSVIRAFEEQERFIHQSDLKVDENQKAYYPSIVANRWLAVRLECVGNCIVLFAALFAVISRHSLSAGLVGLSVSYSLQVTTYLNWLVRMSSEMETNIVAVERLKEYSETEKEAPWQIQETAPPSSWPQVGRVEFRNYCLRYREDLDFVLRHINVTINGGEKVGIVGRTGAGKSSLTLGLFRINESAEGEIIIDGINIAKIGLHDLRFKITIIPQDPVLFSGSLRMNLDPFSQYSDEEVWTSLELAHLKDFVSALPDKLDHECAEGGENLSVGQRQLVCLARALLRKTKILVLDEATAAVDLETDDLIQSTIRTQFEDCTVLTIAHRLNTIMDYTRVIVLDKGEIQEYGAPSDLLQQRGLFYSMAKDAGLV
Chain of Sodium-dependent dopamine transporter (Homo sapiens) (Q01959 whole entry): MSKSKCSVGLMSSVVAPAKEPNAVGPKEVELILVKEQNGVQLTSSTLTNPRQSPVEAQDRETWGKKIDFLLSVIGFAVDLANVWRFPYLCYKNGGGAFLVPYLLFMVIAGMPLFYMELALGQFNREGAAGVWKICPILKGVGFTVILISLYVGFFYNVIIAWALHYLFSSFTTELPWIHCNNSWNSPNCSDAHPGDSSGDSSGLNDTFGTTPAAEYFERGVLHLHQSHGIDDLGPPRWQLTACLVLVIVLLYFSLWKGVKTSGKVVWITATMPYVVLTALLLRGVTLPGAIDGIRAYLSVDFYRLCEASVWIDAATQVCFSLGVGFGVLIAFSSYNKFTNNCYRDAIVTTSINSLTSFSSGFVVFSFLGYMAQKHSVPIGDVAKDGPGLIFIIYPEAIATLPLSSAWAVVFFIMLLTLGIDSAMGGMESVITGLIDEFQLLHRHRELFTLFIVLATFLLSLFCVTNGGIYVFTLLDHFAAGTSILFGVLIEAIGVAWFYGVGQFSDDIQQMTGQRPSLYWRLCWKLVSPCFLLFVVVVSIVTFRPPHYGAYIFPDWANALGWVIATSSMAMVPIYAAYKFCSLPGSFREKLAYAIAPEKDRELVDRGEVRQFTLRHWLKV

SMILES | IC50 [1] | IC50 ([2]; read-out: IC50) | inhibition [3] | IC50 [4] | inhibition (INH) [5] | IC50 [6] | IC50 ([7]; read-out: IC50) | IC50 ([2]; hek293) | IC50 ([7]; nci-h69ar)
COc1cccc(NC(=O)c2nn(CC(=O)Nc3ccccc3OC)c3ccccc23)c1 | 0.237 µM | 76.4 µM | inactive | 6.29 µM | Not_active | 2.19 µM | 3.79 µM |  | 
O=C(Cn1nc(C(=O)Nc2cccnc2)c2ccccc21)Nc1ccc(Cl)cc1 | 0.422 µM | 111 µM | inactive | 6.56 µM | Not_active | 5.15 µM | 2.9 µM |  | 
COc1cccc(NC(=O)Cn2nc(C(=O)Nc3cccc(OC)c3)c3ccccc32)c1 | 0.42 µM |  | inactive | 2.07 µM | Not_active | 1.48 µM | 2.66 µM | Not_active | 
O=C(Cn1nc(C(=O)Nc2ccccn2)c2ccccc21)Nc1cc(Cl)ccc1Cl | 1.32 µM |  | inactive | 1.03 µM | Not_active | 0.492 µM |  | Not_active | Not_active
